Reference: US8492331B2, “Methods for increasing absorption of peptides, peptidomimetics and other gastrointestinal transport protein substrates” (Nestec S.A., priority 2008, dated 2013)
Each block holds one compound with its values, some of them ahead of it.

What was measured:
in vivo [1] = conditions: both, dog, serum, oral, 15 mg/kg BW
Experimental: (§1) Methodology: The study was designed to test the feeding of melatonin on the absorption of cephalexin. Dogs (n=24, Body Weight (BW) range: 7-14 kg, age range: 1.5 to 14 yrs) were divided into a test group and a control group. The respective groups were balanced for gender.
(§2) The test group received a single dose of melatonin (1 mg/kg BW) at 12:00 pm, followed by a single dose of cephalexin (15 mg/kg BW) between 1:00 and 2:00 pm. Dosing with melatonin and cephalexin were both by oral administration to the dogs. The study evaluated cephalexin absorption by determining the pharmacokinetics of cephalexin appearance in serum subsequent to the melatonin administration. […] Samples for pharmacokinetic analysis were taken at 15, 30, 45, and 60 min, as well as 1.5, 2, 2.5, 3, 3.5, 4, 6, and 8 hours after oral dosing of cephalexin. Cephalexin concentration was determined by high pressure liquid chromatograph. Serum melatonin content was analyzed before and after the oral administration time, e.g., at −5, −3, −1, −0.5 hour before, 0 (dosing time), and at 0.5, 1, 2, 3, 4, and 6 hours after oral dosing of melatonin. Melatonin was quantified by radioimmunoassay procedures.

in vivo [2] = conditions: both, Labrador Retriever, dog, serum, oral, 15 mg/kg BW
Experimental: (§3) Methology: The study used n=40 Labrador Retriever dogs (BW range: 21-40 kg) to test the oral ingestion of melatonin compared to no-melatonin placebo control on the absorption of cephalexin, an antibiotic that also serves as a marker substrate for small peptides. The dogs were balanced for gender and the ages ranged from 1.5 to 9 years old. The study evaluated cephalexin absorption by orally administering a single 15 mg/kg BW dose of cephalexin to dogs at 2:00 pm, and subsequently determining the pharmakinetics of cephalexin appearance in serum. Dogs were randomized into 5 different treatment groups and received a single oral dose of melatonin (0.01, 0.1, 1, or 3 mg/kg BW) in a gelatin capsule or placebo simultaneously as the cephalexin dose. The oral dose was immediately followed by an oral administration of 60 mL of water by a 60 mL irrigation syringe. The melatonin dose diluent and placebo pill were the inert carrier, avicel. Cephalexin pharmakinetics were analyzed at 30 and 60 min after dosing and 1.5, 2, 2.5, 3, 4, and 6 hours after oral dosing of cephalexin. Cephalexin concentration was determined by high pressure liquid chromatograph.

[3] = Serum melatonin pharmacokinetics after oral melatonin, radioimmunoassay (Example 1); format: in vivo, Dogs
Excerpt: Melatonin was quantified by radioimmunoassay procedures.

[4] = Day/night activity, Actiwatch monitor, 24 h before and 48 h after oral melatonin (Example 2); format: in vivo, Labrador Retriever dogs; conditions: for Activity (Actiwatch): start of day 2
Experimental: Dogs were fitted with an Actiwatch monitor 24 hours before oral ingestion of one of the melatonin doses, specifically at 2 PM on day 1. Following the oral administration of melatonin, the activity monitoring continued for another 48 hours, at which time the monitors were removed and the data collected for analysis. The dogs were exposed to 11.5 h light:12.5 h dark cycle, in which kennel lighting and natural light was combined over the 11.5 hour period. In the morning the light cycle began with exposure to kennel lighting at 6 AM and darkness onset occurred at 5:30 PM with sunset. For data analysis, activity was separated into three periods of time, afternoon light phase (2 PM to 5:30 PM, 3.5 h duration), dark phase (5:30 PM to 6 AM, 12.5 h duration), and morning light phase (6 AM to 2 PM, 8 h duration). For data analysis purposes, a 24 hour period is from 2:00 PM to 1:59 PM.

[5] = melatonin 1 mg/kg BW oral before cephalexin 15 mg/kg BW oral
Experimental: as §1, §2

[6] = both, Labrador Retriever, dog, in vivo, po, 3 mg/kg
Experimental: as §3

[7] = Titration of oral melatonin dose on cephalexin absorption: serum pharmacokinetics of cephalexin (Example 2)
Experimental: as §3

concentration at 0.25 h (in vivo [1]): 790 ng/mL | concentration at 0.5 h (in vivo [1]): 4170 ng/mL | concentration at 0.75 h (in vivo [1]): 8190 ng/mL | concentration at 1 h (in vivo [1]): 10900 ng/mL | concentration at 1.5 h (in vivo [1]): 13900 ng/mL | concentration at 2 h (in vivo [1]): 13700 ng/mL | concentration at 2.5 h (in vivo [1]): 14300 ng/mL | concentration at 3 h (in vivo [1]): 13000 ng/mL | concentration at 3.5 h (in vivo [1]): 11800 ng/mL | concentration at 4 h (in vivo [1]): 9900 ng/mL | concentration at 6 h (in vivo [1]): 5910 ng/mL | concentration at 8 h (in vivo [1]): 3730 ng/mL | concentration at 0.5 h (in vivo [2]): 2010 ng/mL | concentration at 1 h (in vivo [2]): 6280 ng/mL | concentration at 1.5 h (in vivo [2]): 9920 ng/mL | concentration at 2 h (in vivo [2]): 11800 ng/mL | concentration at 2.5 h (in vivo [2]): 12400 ng/mL | concentration at 3 h (in vivo [2]): 12200 ng/mL | concentration at 4 h (in vivo [2]): 11300 ng/mL | concentration at 6 h (in vivo [2]): 7570 ng/mL
SMILES: CC1=C(C(=O)O)N2C(=O)[C@@H](NC(=O)[C@H](N)c3ccccc3)[C@H]2SC1 [Cephalexin, cephalexin]

concentration at 1 h ([3]; dog, serum, melatonin 1 mg/kg BW oral at 12:00 pm, sample 1:00 pm): 9.55 ng/mL | concentration at 1.5 h ([3]; dog, serum, melatonin 1 mg/kg BW oral at 12:00 pm, sample 1:30 pm): 8.97 ng/mL | concentration at 2 h ([3]; dog, serum, melatonin 1 mg/kg BW oral at 12:00 pm, sample 2:00 pm): 4.79 ng/mL | concentration at 3 h ([3]; dog, serum, melatonin 1 mg/kg BW oral at 12:00 pm, sample 3:00 pm): 1.46 ng/mL | concentration at 4 h ([3]; dog, serum, melatonin 1 mg/kg BW oral at 12:00 pm, sample 4:00 pm): 0.747 ng/mL | concentration at 5 h ([3]; dog, serum, melatonin 1 mg/kg BW oral at 12:00 pm, sample 5:00 pm): 0.273 ng/mL | concentration at 7 h ([3]; dog, serum, melatonin 1 mg/kg BW oral at 12:00 pm, sample 7:00 pm): 0.0885 ng/mL | concentration at -3 h ([3]; dog, serum, melatonin 1 mg/kg BW oral at 12:00 pm, sample 9:00 am (before dosing)): 0.0039 ng/mL | concentration at -1 h ([3]; dog, serum, melatonin 1 mg/kg BW oral at 12:00 pm, sample 11:00 am (before dosing)): 0.0005 ng/mL | concentration at 0 h ([3]; dog, serum, melatonin 1 mg/kg BW oral at 12:00 pm, sample 12:00 pm (dosing time)): 0.0184 ng/mL | concentration at 0.5 h ([3]; dog, serum, melatonin 1 mg/kg BW oral at 12:00 pm, sample 12:30 pm): 10.7 ng/mL | Activity (Actiwatch) ([4]; melatonin 0.01 mg/kg BW oral at 2 PM, Afternoon Light Phase (2 PM-5:30 PM), Day 1 (before dosing)): 30064 | Activity (Actiwatch) ([4]; melatonin 0.01 mg/kg BW oral at 2 PM, Afternoon Light Phase (2 PM-5:30 PM), Day 2): 44935 | Activity (Actiwatch) ([4]; melatonin 0.01 mg/kg BW oral at 2 PM, Afternoon Light Phase (2 PM-5:30 PM), Day 3): 39386 | Activity (Actiwatch) ([4]; melatonin 0.01 mg/kg BW oral at 2 PM, Dark Phase (5:30 PM-6 AM), Day 1 (before dosing)): 32346 | Activity (Actiwatch) ([4]; melatonin 0.01 mg/kg BW oral at 2 PM, Dark Phase (5:30 PM-6 AM), Day 2): 30930 | Activity (Actiwatch) ([4]; melatonin 0.01 mg/kg BW oral at 2 PM, Dark Phase (5:30 PM-6 AM), Day 3): 34140 | Activity (Actiwatch) ([4]; melatonin 0.01 mg/kg BW oral at 2 PM, Morning Light Phase (6 AM-2 PM), Day 1 (before dosing)): 140160 | Activity (Actiwatch) ([4]; melatonin 0.01 mg/kg BW oral at 2 PM, Morning Light Phase (6 AM-2 PM), Day 2): 128216 | Activity (Actiwatch) ([4]; melatonin 0.01 mg/kg BW oral at 2 PM, Morning Light Phase (6 AM-2 PM), Day 3): 120706 | Activity (Actiwatch) ([4]; melatonin 0.1 mg/kg BW oral at 2 PM, Afternoon Light Phase (2 PM-5:30 PM), Day 1 (before dosing)): 28140 | Activity (Actiwatch) ([4]; melatonin 0.1 mg/kg BW oral at 2 PM, Afternoon Light Phase (2 PM-5:30 PM), Day 2): 30124 | Activity (Actiwatch) ([4]; melatonin 0.1 mg/kg BW oral at 2 PM, Afternoon Light Phase (2 PM-5:30 PM), Day 3): 21497 | Activity (Actiwatch) ([4]; melatonin 0.1 mg/kg BW oral at 2 PM, Dark Phase (5:30 PM-6 AM), Day 1 (before dosing)): 38464 | Activity (Actiwatch) ([4]; melatonin 0.1 mg/kg BW oral at 2 PM, Dark Phase (5:30 PM-6 AM), Day 2): 30753 | Activity (Actiwatch) ([4]; melatonin 0.1 mg/kg BW oral at 2 PM, Dark Phase (5:30 PM-6 AM), Day 3): 32849 | Activity (Actiwatch) ([4]; melatonin 0.1 mg/kg BW oral at 2 PM, Morning Light Phase (6 AM-2 PM), Day 1 (before dosing)): 133337 | Activity (Actiwatch) ([4]; melatonin 0.1 mg/kg BW oral at 2 PM, Morning Light Phase (6 AM-2 PM), Day 2): 130972 | Activity (Actiwatch) ([4]; melatonin 0.1 mg/kg BW oral at 2 PM, Morning Light Phase (6 AM-2 PM), Day 3): 99800 | Activity (Actiwatch) ([4]; melatonin 1 mg/kg BW oral at 2 PM, Afternoon Light Phase (2 PM-5:30 PM), Day 1 (before dosing)): 34376 | Activity (Actiwatch) ([4]; melatonin 1 mg/kg BW oral at 2 PM, Afternoon Light Phase (2 PM-5:30 PM), Day 2): 44889 | Activity (Actiwatch) ([4]; melatonin 1 mg/kg BW oral at 2 PM, Afternoon Light Phase (2 PM-5:30 PM), Day 3): 31184 | Activity (Actiwatch) ([4]; melatonin 1 mg/kg BW oral at 2 PM, Dark Phase (5:30 PM-6 AM), Day 1 (before dosing)): 47178 | Activity (Actiwatch) ([4]; melatonin 1 mg/kg BW oral at 2 PM, Dark Phase (5:30 PM-6 AM), Day 2): 26733 | Activity (Actiwatch) ([4]; melatonin 1 mg/kg BW oral at 2 PM, Dark Phase (5:30 PM-6 AM), Day 3): 49958 | Activity (Actiwatch) ([4]; melatonin 1 mg/kg BW oral at 2 PM, Morning Light Phase (6 AM-2 PM), Day 1 (before dosing)): 155482 | Activity (Actiwatch) ([4]; melatonin 1 mg/kg BW oral at 2 PM, Morning Light Phase (6 AM-2 PM), Day 2): 151573 | Activity (Actiwatch) ([4]; melatonin 1 mg/kg BW oral at 2 PM, Morning Light Phase (6 AM-2 PM), Day 3): 126103 | Activity (Actiwatch) ([4]; melatonin 3 mg/kg BW oral at 2 PM, Afternoon Light Phase (2 PM-5:30 PM), Day 1 (before dosing)): 30548 | Activity (Actiwatch) ([4]; melatonin 3 mg/kg BW oral at 2 PM, Afternoon Light Phase (2 PM-5:30 PM), Day 2): 45730 | Activity (Actiwatch) ([4]; melatonin 3 mg/kg BW oral at 2 PM, Afternoon Light Phase (2 PM-5:30 PM), Day 3): 35034 | Activity (Actiwatch) ([4]; melatonin 3 mg/kg BW oral at 2 PM, Dark Phase (5:30 PM-6 AM), Day 1 (before dosing)): 33517 | Activity (Actiwatch) ([4]; melatonin 3 mg/kg BW oral at 2 PM, Dark Phase (5:30 PM-6 AM), Day 2): 35926 | Activity (Actiwatch) ([4]; melatonin 3 mg/kg BW oral at 2 PM, Dark Phase (5:30 PM-6 AM), Day 3): 33492 | Activity (Actiwatch) ([4]; melatonin 3 mg/kg BW oral at 2 PM, Morning Light Phase (6 AM-2 PM), Day 1 (before dosing)): 139265 | Activity (Actiwatch) ([4]; melatonin 3 mg/kg BW oral at 2 PM, Morning Light Phase (6 AM-2 PM), Day 2): 153805 | Activity (Actiwatch) ([4]; melatonin 3 mg/kg BW oral at 2 PM, Morning Light Phase (6 AM-2 PM), Day 3): 117374 | Activity during the dark phase immediately following oral ingestion, compared to placebo ([4]; melatonin 0.01, 0.1, and 1 mg/kg groups): decrease compared to the placebo groups | Nighttime activity ([4]; oral melatonin administered in the afternoon): nighttime activity is slightly reduced | Effect of oral melatonin on absorption of cephalexin [5]: increased the absorption of cephalexin | Cephalexin AUC greater than placebo group [6]: 45-34 | Amount of cephalexin appearing in the blood compared to the placebo group ([7]; melatonin 0.01 mg/kg BW oral): slightly decreased
SMILES: COc1ccc2[nH]cc(CCNC(C)=O)c2c1 [Melatonin, 5-methoxy-N-acetyltryptamine]
Melatonin appearance in serum ([3]; dogs that ingested melatonin 1 mg/kg BW, versus baseline levels of control dogs): increased significantly for up to 6 hours after ingestion | Influence on activity, late afternoon light phase (2 pm to 5:30 pm) ([4]; oral melatonin 0.01, 0.1, 1, and 3 mg/kg BW): did not demonstrate any influence of oral melatonin on activity | Impact on activity in the daylight hours ([4]; oral melatonin 0.01-3 mg/kg BW): does not seem to impact activity of dogs in the daylight hours | Effect on absorption of cephalexin compared to placebo dogs ([7]; melatonin 0.1, 1, and 3 mg/kg BW oral): an increase in the absorption of cephalexin
